According to the supplement of paper PMC10307832:

Tests used:
Assay in all cases: relative viability (nuclei count vs DMSO), 5 days (fraction); higher = more cells survive
NCI-H3122 = test system: NCI-H3122
Procedure, shortened: (§1)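 Relative viability was taken as the ratio of nuclei in treated wells to nuclei in vehicle wells. Lung cancer cell lines in 1536-well plates received compounds by pin tool one day after seeding, either one drug alone or a fixed anchor-drug dose plus five library-drug doses (not always all listed) in √10 steps. Nuclei were counted on 4× images after 5 days of treatment, and values are medians of duplicate plates.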

NCI-H460 = test system: NCI-H460
Procedure, shortened: as §1

NCI-H1792 = test system: NCI-H1792
Procedure, shortened: as §1

PC-14 = test system: PC-14
Procedure, shortened: as §1

NCI-H441 = test system: NCI-H441
Procedure, shortened: as §1

NCI-H322M = test system: NCI-H322M
Procedure, shortened: as §1

SK-MES-1 = test system: SK-MES-1
Procedure, shortened: as §1

LXF-289 = test system: LXF-289
Procedure, shortened: as §1

NCI-H727 = test system: NCI-H727
Procedure, shortened: as §1

RERF-LC-KJ = test system: RERF-LC-KJ
Procedure, shortened: as §1

NCI-H596 = test system: NCI-H596
Procedure, shortened: as §1

NCI-H1755 = test system: NCI-H1755
Procedure, shortened: as §1

NCI-H1355 = test system: NCI-H1355
Procedure, shortened: as §1

NCI-H2347 = test system: NCI-H2347
Procedure, shortened: as §1

NCI-H1915 = test system: NCI-H1915
Procedure, shortened: as §1

NCI-H1651 = test system: NCI-H1651
Procedure, shortened: as §1

NCI-H2170 = test system: NCI-H2170
Procedure, shortened: as §1

NCI-H520 = test system: NCI-H520
Procedure, shortened: as §1

O=C(O)c1ccc(-c2c[nH]c3ncc(-c4ccccc4)cc23)cc1C1CCCC1 + CC1(C)CCC(c2ccc(Cl)cc2)=C(CN2CCN(c3ccc(C(=O)NS(=O)(=O)c4ccc(N[C@H](CCN5CCOCC5)CSc5ccccc5)c(S(=O)(=O)C(F)(F)F)c4)cc3)CC2)C1 [Navitoclax] (partner 0.5 µM)
relative viability (NCI-H3122; first compound 0.04 µM): 1.02
relative viability (NCI-H3122; first compound 0.1265 µM): 1
relative viability (NCI-H3122; first compound 0.4 µM): 1.03
relative viability (NCI-H3122; first compound 1.265 µM): 0.976
relative viability (NCI-H460; first compound 0.04 µM): 1.08
relative viability (NCI-H460; first compound 0.1265 µM): 1.18
relative viability (NCI-H460; first compound 0.4 µM): 1.14
relative viability (NCI-H460; first compound 1.265 µM): 0.962
relative viability (NCI-H1792; first compound 0.04 µM): 0.516
relative viability (NCI-H1792; first compound 0.1265 µM): 0.728
relative viability (NCI-H1792; first compound 0.4 µM): 0.661
relative viability (NCI-H1792; first compound 1.265 µM): 0.588
relative viability (PC-14; first compound 0.04 µM): 1.01
relative viability (PC-14; first compound 0.1265 µM): 1.1
relative viability (PC-14; first compound 0.4 µM): 1.03
relative viability (PC-14; first compound 1.265 µM): 0.814
relative viability (NCI-H441; first compound 0.04 µM): 0.751
relative viability (NCI-H441; first compound 0.1265 µM): 0.583
relative viability (NCI-H441; first compound 0.4 µM): 0.365
relative viability (NCI-H441; first compound 1.265 µM): 0.469
relative viability (NCI-H322M; first compound 0.04 µM): 1.19
relative viability (NCI-H322M; first compound 0.1265 µM): 1.37
relative viability (NCI-H322M; first compound 0.4 µM): 1.34
relative viability (NCI-H322M; first compound 1.265 µM): 1.03
relative viability (SK-MES-1; first compound 0.04 µM): 1.19
relative viability (SK-MES-1; first compound 0.1265 µM): 1.24
relative viability (SK-MES-1; first compound 0.4 µM): 1.05
relative viability (SK-MES-1; first compound 1.265 µM): 0.798
relative viability (LXF-289; first compound 0.04 µM): 0.936
relative viability (LXF-289; first compound 0.1265 µM): 0.883
relative viability (LXF-289; first compound 0.4 µM): 0.658
relative viability (LXF-289; first compound 1.265 µM): 0.48
relative viability (NCI-H727; first compound 0.04 µM): 0.414
relative viability (NCI-H727; first compound 0.1265 µM): 0.422
relative viability (NCI-H727; first compound 0.4 µM): 0.476
relative viability (NCI-H727; first compound 1.265 µM): 0.515
relative viability (RERF-LC-KJ; first compound 0.04 µM): 1.05
relative viability (RERF-LC-KJ; first compound 0.1265 µM): 1.24
relative viability (RERF-LC-KJ; first compound 0.4 µM): 0.842
relative viability (RERF-LC-KJ; first compound 1.265 µM): 0.772
relative viability (NCI-H596; first compound 0.04 µM): 0.82
relative viability (NCI-H596; first compound 0.1265 µM): 1.12
relative viability (NCI-H596; first compound 0.4 µM): 0.869
relative viability (NCI-H596; first compound 1.265 µM): 0.884
relative viability (NCI-H1755; first compound 0.04 µM): 0.98
relative viability (NCI-H1755; first compound 0.1265 µM): 1.05
relative viability (NCI-H1755; first compound 0.4 µM): 1.03
relative viability (NCI-H1755; first compound 1.265 µM): 0.927
relative viability (NCI-H1355; first compound 0.04 µM): 0.995
relative viability (NCI-H1355; first compound 0.1265 µM): 0.957
relative viability (NCI-H1355; first compound 0.4 µM): 1.03
relative viability (NCI-H1355; first compound 1.265 µM): 0.683
relative viability (NCI-H2347; first compound 0.04 µM): 0.778
relative viability (NCI-H2347; first compound 0.1265 µM): 0.821
relative viability (NCI-H2347; first compound 0.4 µM): 0.761
relative viability (NCI-H2347; first compound 1.265 µM): 0.612
relative viability (NCI-H1915; first compound 0.04 µM): 0.769
relative viability (NCI-H1915; first compound 0.1265 µM): 0.77
relative viability (NCI-H1915; first compound 0.4 µM): 0.609
relative viability (NCI-H1915; first compound 1.265 µM): 0.502
relative viability (NCI-H1651; first compound 0.04 µM): 0.926
relative viability (NCI-H1651; first compound 0.1265 µM): 0.995
relative viability (NCI-H1651; first compound 0.4 µM): 0.943
relative viability (NCI-H1651; first compound 1.265 µM): 0.696
relative viability (NCI-H2170; first compound 0.04 µM): 0.605
relative viability (NCI-H2170; first compound 0.1265 µM): 0.64
relative viability (NCI-H2170; first compound 0.4 µM): 0.483
relative viability (NCI-H2170; first compound 1.265 µM): 0.503
relative viability (NCI-H520; first compound 0.04 µM): 1.1
relative viability (NCI-H520; first compound 0.1265 µM): 1.08
relative viability (NCI-H520; first compound 0.4 µM): 1.18
relative viability (NCI-H520; first compound 1.265 µM): 0.836

NC(=O)Nc1cc(-c2cccc(F)c2)sc1C(=O)N[C@H]1CCCNC1 [AZD7762] + CC1(C)CCC(c2ccc(Cl)cc2)=C(CN2CCN(c3ccc(C(=O)NS(=O)(=O)c4ccc(N[C@H](CCN5CCOCC5)CSc5ccccc5)c(S(=O)(=O)C(F)(F)F)c4)cc3)CC2)C1 [Navitoclax] (partner 0.5 µM)
relative viability (NCI-H3122; first compound 0.01 µM): 0.97
relative viability (NCI-H3122; first compound 0.03162 µM): 1.03
relative viability (NCI-H3122; first compound 0.1 µM): 1.01
relative viability (NCI-H3122; first compound 0.3162 µM): 0.995
relative viability (NCI-H3122; first compound 1 µM): 1.05
relative viability (NCI-H460; first compound 0.01 µM): 1.25
relative viability (NCI-H460; first compound 0.03162 µM): 1.15
relative viability (NCI-H460; first compound 0.1 µM): 1.11
relative viability (NCI-H460; first compound 0.3162 µM): 0.861
relative viability (NCI-H460; first compound 1 µM): 0.0845
relative viability (NCI-H1792; first compound 0.01 µM): 0.677
relative viability (NCI-H1792; first compound 0.03162 µM): 0.686
relative viability (NCI-H1792; first compound 0.1 µM): 0.692
relative viability (NCI-H1792; first compound 0.3162 µM): 0.565
relative viability (NCI-H1792; first compound 1 µM): 0.72
relative viability (PC-14; first compound 0.01 µM): 1.09
relative viability (PC-14; first compound 0.03162 µM): 1.02
relative viability (PC-14; first compound 0.1 µM): 1.02
relative viability (PC-14; first compound 0.3162 µM): 0.895
relative viability (PC-14; first compound 1 µM): 0.512
relative viability (NCI-H441; first compound 0.01 µM): 0.803
relative viability (NCI-H441; first compound 0.03162 µM): 0.684
relative viability (NCI-H441; first compound 0.1 µM): 0.721
relative viability (NCI-H441; first compound 0.3162 µM): 0.479
relative viability (NCI-H441; first compound 1 µM): 1.1
relative viability (NCI-H322M; first compound 0.01 µM): 1.14
relative viability (NCI-H322M; first compound 0.03162 µM): 1.33
relative viability (NCI-H322M; first compound 0.1 µM): 1.29
relative viability (NCI-H322M; first compound 0.3162 µM): 1.22
relative viability (NCI-H322M; first compound 1 µM): 1.03
relative viability (SK-MES-1; first compound 0.01 µM): 1.24
relative viability (SK-MES-1; first compound 0.03162 µM): 1.38
relative viability (SK-MES-1; first compound 0.1 µM): 1.41
relative viability (SK-MES-1; first compound 0.3162 µM): 1.28
relative viability (SK-MES-1; first compound 1 µM): 0.645
relative viability (LXF-289; first compound 0.01 µM): 0.943
relative viability (LXF-289; first compound 0.03162 µM): 0.962
relative viability (LXF-289; first compound 0.1 µM): 0.949
relative viability (LXF-289; first compound 0.3162 µM): 1
relative viability (LXF-289; first compound 1 µM): 1.03
relative viability (NCI-H727; first compound 0.01 µM): 0.456
relative viability (NCI-H727; first compound 0.03162 µM): 0.54
relative viability (NCI-H727; first compound 0.1 µM): 0.397
relative viability (NCI-H727; first compound 0.3162 µM): 0.318
relative viability (NCI-H727; first compound 1 µM): 0.111
relative viability (RERF-LC-KJ; first compound 0.01 µM): 1.15
relative viability (RERF-LC-KJ; first compound 0.03162 µM): 0.913
relative viability (RERF-LC-KJ; first compound 0.1 µM): 1.12
relative viability (RERF-LC-KJ; first compound 0.3162 µM): 1.21
relative viability (RERF-LC-KJ; first compound 1 µM): 0.878
relative viability (NCI-H596; first compound 0.01 µM): 1.14
relative viability (NCI-H596; first compound 0.03162 µM): 0.936
relative viability (NCI-H596; first compound 0.1 µM): 1.06
relative viability (NCI-H596; first compound 0.3162 µM): 0.912
relative viability (NCI-H596; first compound 1 µM): 0.698
relative viability (NCI-H1755; first compound 0.01 µM): 1.03
relative viability (NCI-H1755; first compound 0.03162 µM): 1.01
relative viability (NCI-H1755; first compound 0.1 µM): 1.08
relative viability (NCI-H1755; first compound 0.3162 µM): 1.08
relative viability (NCI-H1755; first compound 1 µM): 0.622
relative viability (NCI-H1355; first compound 0.01 µM): 0.879
relative viability (NCI-H1355; first compound 0.03162 µM): 1.07
relative viability (NCI-H1355; first compound 0.1 µM): 0.946
relative viability (NCI-H1355; first compound 0.3162 µM): 1.01
relative viability (NCI-H1355; first compound 1 µM): 0.914
relative viability (NCI-H2347; first compound 0.01 µM): 0.829
relative viability (NCI-H2347; first compound 0.03162 µM): 0.934
relative viability (NCI-H2347; first compound 0.1 µM): 0.935
relative viability (NCI-H2347; first compound 0.3162 µM): 0.991
relative viability (NCI-H2347; first compound 1 µM): 0.982
relative viability (NCI-H1915; first compound 0.01 µM): 0.783
relative viability (NCI-H1915; first compound 0.03162 µM): 0.78
relative viability (NCI-H1915; first compound 0.1 µM): 0.784
relative viability (NCI-H1915; first compound 0.3162 µM): 0.806
relative viability (NCI-H1915; first compound 1 µM): 0.672
relative viability (NCI-H1651; first compound 0.01 µM): 1.16
relative viability (NCI-H1651; first compound 0.03162 µM): 0.964
relative viability (NCI-H1651; first compound 0.1 µM): 0.922
relative viability (NCI-H1651; first compound 0.3162 µM): 0.855
relative viability (NCI-H1651; first compound 1 µM): 0.283
relative viability (NCI-H2170; first compound 0.01 µM): 0.62
relative viability (NCI-H2170; first compound 0.03162 µM): 0.702
relative viability (NCI-H2170; first compound 0.1 µM): 0.577
relative viability (NCI-H2170; first compound 0.3162 µM): 0.653
relative viability (NCI-H2170; first compound 1 µM): 0.584
relative viability (NCI-H520; first compound 0.01 µM): 1.11
relative viability (NCI-H520; first compound 0.03162 µM): 1.13
relative viability (NCI-H520; first compound 0.1 µM): 1.07
relative viability (NCI-H520; first compound 0.3162 µM): 0.595
relative viability (NCI-H520; first compound 1 µM): 0.45
